Values joined by “and” are separate entries in the source; they are usually repeats but may differ in a detail not shown here. Equal values may be shown once.
Assays:
Type in all cases: biochemical
[1] = FRAP assay (reduction of Fe(III) to Fe(II)); parameters: Slope of ΔA593 versus concentration: unit not given here; conditions: for Slope of ΔA593 versus concentration: 37° C.
Method: The FRAP assay was performed as previously described (Pulido, et al. J. Agric. Food Chem. 2000, 48, 3396-3402, incorporated herein by reference in its entirety). In the FRAP assay, ferric was reduced by the antioxidant to ferrous via electron transfer (Benzie et al., Anal. Biochem. 1996, 239, 70-76, incorporated herein by reference in its entirety). This assay measured the redox potential of an antioxidant which is used as an estimate of antioxidant efficiency and expressed as a FRAP value. […] The compound 1 as well as the other antioxidants was dissolved in methanol. […] Reaction kinetics of the compound 1 and other antioxidants were obtained by plotting the change in slopes at various times and are shown in FIG. 18. […] This time-dependent increase in absorbance was previously reported (Pulido, et al. J. Agric. Food Chem. 2000, 48, 3396-3402, incorporated herein by reference in its entirety) and was especially significant with polyphenolic compounds. […] However, the FRAP value increased with time, reaching 2.5 in 60 min. […] J. Agric. Food Chem. 2000, 48, 3396-3402, incorporated herein by reference in its entirety). […] EC1 values, and therefore ferric reducing ability, were lower at longer reaction times as expected from the kinetic behavior of the antioxidants (Pulido, et al. J. Agric. Food Chem. 2000, 48, 3396-3402, incorporated herein by reference in its entirety).

[2] = tested on: plasmid DNA pBR 322; experiment: Protection of plasmid DNA from AAPH damage (agarose electrophoresis); conditions: 10 mM AAPH, 37° C., 4 h
[3] = beta-carotene-linoleate assay; conditions: 50° C., 180 min, 470 nm
Text: The ability of the dendritic antioxidants 1, 2, and 3 to protect linoleic acid against free radical damage was examined by the beta-carotene-linoleate model (Jayaprakasha, G. K., et al. Food Chem. 2001, 73, 285, incorporated herein by reference in its entirety). In the absence of an antioxidant, hydroperoxides formed from linoleic acid oxidation bleach the highly unsaturated beta-carotene by a free-radical-mediated phenomenon. The bleaching of the reddish-orange color of beta-carotene was monitored at 470 nm in the presence of various concentrations of antioxidant. The % absorbance (corrected for control without antioxidant) was determined at each antioxidant concentration after incubation at 50° C. for 180 min. The % A470 nm values were determined as follows: % A470 nm=[(At(180 min)/At(0 min))×100]−[(Ac(180 min)/Ac(0 min))×100], wherein At(180 min)=absorbance at 470 nm of antioxidant sample incubated at 50° C. for 180 min, At(0 min)=absorbance at 470 nm of antioxidant sample incubated at 50° C. for 0 min, Ac(180 min)=absorbance at 470 nm of control sample (without antioxidant) incubated at 50° C. for 180 min, and Ac(0 min)=absorbance at 470 nm of control sample (without antioxidant) incubated at 50° C. for 0 min. […] In FIG. 24, protection of linoleic acid from oxidation by various antioxidants is shown for compound 1 (□), compounds 2 and 3 (•), quercetin (x), and Trolox (Δ).

Row | SMILES | Antioxidant Capacity Relative to Trolox, FRAP 5 min ([1]; 5 min) | EC1 (concentration with ferric-TPTZ reducing ability equivalent to 1 mM FeSO4.7H2O) ([1]; 5 min) [µM] | FRAP value relative to Fe(II) ([1]; 5 min) | FRAP value relative to Fe(II) ([1]; 15 min) | FRAP value relative to Fe(II) ([1]; 30 min) | Antioxidant Capacity Relative to Trolox, FRAP 60 min ([1]; 60 min) | EC1 (concentration with ferric-TPTZ reducing ability equivalent to 1 mM FeSO4.7H2O) ([1]; 60 min) [µM] | FRAP value relative to Fe(II) ([1]; 60 min) | Slope of ΔA593 versus concentration ([1]; Reaction time 5 min) | Slope of ΔA593 versus concentration ([1]; Reaction time 15 min) | Slope of ΔA593 versus concentration ([1]; Reaction time 30 min) | Slope of ΔA593 versus concentration ([1]; Reaction time 60 min) | protection of linoleic acid from oxidation [3] | also measured
1 | COc1cc(CN(Cc2ccc(CN(Cc3cc(OC)c(O)c(OC)c3)Cc3cc(OC)c(O)c(OC)c3)cc2)Cc2cc(OC)c(O)c(OC)c2)cc(OC)c1O [Compound 1] | 6.1 | 74 | 13.5 | 14.6 | 15.1 | 7.2 | 63 | 15.8 | 0.163 | 0.175 | 0.182 | 0.190 | most effective | FRAP, times better than ascorbic acid ([1]; 5 min): 6.7 times; Antioxidant Capacity Relative to Trolox, FRAP 5 min ([1]; 5 min, listed as compound 1): ~6 and 6.1; FRAP ratio to syringaldehyde ([1]; 5 min, listed as compound 1): ~2.6 times and 2.7 times; FRAP ratio to syringaldehyde ([1]; 60 min): 1.7 times; FRAP, times better than ascorbic acid ([1]; 60 min): 6.5 times; Antioxidant Capacity Relative to Trolox, FRAP 60 min ([1]; 60 min, listed as compound 1): ~7 and 7.2; DNA protection ([2]; 5 μM antioxidant): Some protection; DNA protection (S band intensity) ([2]; 11-45 μM antioxidant): well protected; DNA protection ([2]; below 5 μM antioxidant): No protection
2 | Cc1c(C)c2c(c(C)c1O)CCC(C)(C(=O)O)O2 (stereo not shown) [Trolox, 6-hydroxy-2,5,7,8-tetramethylchroman-2-carboxylic acid] | 1 | 450 | 2.2 | 2.2 | 2.2 | 1 | 449 | 2.2 | 0.0268 | 0.0269 | 0.0269 | 0.0269 | more effective than compounds 2 and 3 (and quercetin) at lower concentrations | FRAP value, did not change with time ([1]; testing period 60 min): 2.2; DNA protection at all concentrations used ([2]; 0.35-45 μM): ineffective
